Measured values reported in patent publication US20160355530A1, “HEPATITIS C INHIBITORS AND USES THEREOF” (AbbVie Inc., priority 2010, published 2016).
Where two headings read alike, the source gives them in different places.

How the values were obtained:
[1] = biological target: T1, HCV NS5B polymerase 1a-H77 (Hepatitis C virus genotype 1a, UniProt P27958); experiment: biochemical; set-up: species or system HCV genotype 1a; settings: enzyme, strain 1a H77; read-out: HCV Polymerase Strain 1a H77 IC50
T1 construct: six-histidine tag; made in house; host or cells: E. coli
Outline: (§1)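 Incorporation of [3H]UTP (0.284 μM), alongside 20 μM each CTP and ATP, into RNA copied from a 5 nM 2.1 kb genotype 1b negative-strand template was measured after 3 h at 30° C using purified His-tagged NS5B truncated at residue 570. Product was spermine-precipitated, filtered and scintillation-counted; nonlinear regression gave IC50.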

[2] = biological target: T2, HCV NS5B polymerase 1a-H77-C316Y (Hepatitis C virus genotype 1a, UniProt P27958, C2736Y); experiment: biochemical; set-up: species or system HCV genotype 1a
T2 construct: six-histidine tag; made in house; host or cells: E. coli
Outline: as §1

[3] = system: HCV NS5B polymerase 1a-H77-C316Y; experiment: biochemical; set-up: species or system HCV genotype 1a; settings: ratio of enzyme IC50s, 1a H77-C316Y / 1a H77
Outline: as §1

[4] = biological target: T3, HCV NS5B polymerase 1b BK strain (Hepatitis C virus genotype 1b, UniProt P26663); experiment: HCV NS5B polymerase enzymatic inhibition assay, strain 1b BK; format: biochemical; settings: enzyme, strain 1b BK; read-out: HCV Polymerase Strain 1b BK IC50
T3 construct: six-histidine tag; made in house; host or cells: E. coli
Outline: as §1

[5] = system: HCV 1a-H77 subgenomic replicon; experiment: microbe, parasite or virus in culture; format: cell-based, HCV genotype 1a; settings: Hepatitis C virus, stable replicon
[6] = system: HCV 1a-H77 C316Y mutant subgenomic replicon; experiment: Stable replicon cell culture assay (luciferase), 1a-H77-C316Y mutant; format: cell-based, HCV genotype 1a; settings: for EC50: Hepatitis C virus, read-out: Stable Replicon 1a H77-C316Y 5% FBS EC50; for Stable Replicon Fold Resistance C316Y/1a: ratio of stable replicon EC50s, C316Y / 1a H77
[7] = system: HCV 1b-BB7 subgenomic replicon; experiment: microbe, parasite or virus in culture; format: cell-based, HCV genotype 1b; settings: Hepatitis C virus, stable replicon
[8] = system: chimeric replicon with 2a-J6CF-derived NS5B; experiment: microbe, parasite or virus in culture; format: cell-based, HCV genotype 2a; settings: Hepatitis C virus, read-out: 2a chimera 5% FBS EC50
[9] = system: chimeric replicon with genotype 2b NS5B; experiment: microbe, parasite or virus in culture; format: cell-based, HCV genotype 2b; settings: Hepatitis C virus, read-out: 2b chimera 5% FBS EC50
[10] = system: chimeric replicon with genotype 3a NS5B; experiment: microbe, parasite or virus in culture; format: cell-based, HCV genotype 3a; settings: Hepatitis C virus, read-out: 3a chimera 5% FBS EC50
[11] = system: chimeric replicon with genotype 4a NS5B; experiment: microbe, parasite or virus in culture; format: cell-based, HCV genotype 4a; settings: Hepatitis C virus, read-out: 4a chimera 5% FBS EC50
[12] = system: HCV 1a-H77 transient subgenomic replicon in Huh-7 derived cell line; experiment: microbe, parasite or virus in culture; format: cell-based, HCV genotype 1a; settings: Hepatitis C virus, Huh-7; transient replicon, 5% FBS; read-out: Transient Replicon 1a H77 5% FBS EC50
Outline: (§2)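 Transient format: T7-transcribed replicon RNA lacking Neo, electroporated into Huh-7-derived cells (5×10^3/well), input RNA checked by luciferase at 4 h. Three-fold compound dilution series, 0.5% DMSO, 4 days at 37° C; EC50 from luciferase signal in lysed cells.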

[13] = system: HCV 1a-H77-C316Y transient subgenomic replicon in Huh-7 derived cell line; experiment: microbe, parasite or virus in culture; format: cell-based, HCV genotype 1a; settings: for EC50: Hepatitis C virus, Huh-7, read-out: Transient Replicon 1a H77-C316Y 5% FBS EC50; for Transient Replicon Fold Resistance C316Y/1a: ratio of transient replicon EC50s, C316Y / 1a H77
Outline: as §2

[14] = biological target: T4, HCV NS5B polymerase 1b Rice (Hepatitis C virus genotype 1b, UniProt Q9WMX2); experiment: HCV NS5B polymerase enzymatic inhibition assay, strain 1b Rice; format: biochemical, HCV genotype 1b; settings: enzyme
T4 construct: six-histidine tag; made in house; host or cells: E. coli
Procedure: Purified HCV NS5B polymerase enzymes were used for polymerase inhibition assays. All recombinant HCV polymerases contained the first 570 amino acids of the 591 amino acid native protein sequence and a six-histidine tag at the N-terminus or C-terminus to facilitate purification by affinity chromatography. The DNA nucleotide sequence for the HCV polymerase 1b BK strain was codon optimized for expression in E. coli. A synthetic gene was prepared from a series of overlapping oligonucleotides that were filled in using a DNA polymerase and amplified by PCR. The patient isolate HCV polymerases were cloned by RT-PCR methods using HCV RNA extracted from the serum of infected subjects obtained from ProMedDx and BioCollections (genotypes 2a, 2b, 3a, and 4a). Laboratory strains were cloned from plasmid DNA (1a-H77 or 1a-H77-C316Y) or from existing replicon cells (1b Rice). In all cases the amplified DNA was cloned into a protein expression vector (typically a pET vector from Novagen) and then multiple clones were sequenced to identify one whose NS5B sequence agreed with the population sequence. This sequence-confirmed clone was then transfected into E. coli for protein expression and purification. E. coli cultures were grown to a maximum optical density (OD) of 2-3 and then induced with 0.4 mM isopropyl beta-D-thiogalactopyranoside (IPTG) and grown for 20 hours at 20° C.
Proteins were purified using nickel affinity chromatography, and additional column steps were added including, ion exchange, size exclusion, hydrophobic ion, and poly-U affinity chromatography, as needed, depending on the sample being purified. The template RNA used in the polymerase enzymatic assay was a 2.1 kb construct that corresponds to the 3′-end of an HCV genotype 1b negative strand RNA.
The reaction was initiated by the addition of 20 μM CTP, 20 μM ATP, 0.284 μM (0.5 μCi) of 5,6-[^3H] UTP, 5 nM template RNA and 0.1 U/μL RNase inhibitor (RNasin, Promega), and allowed to proceed for three hours at 30° C. The final reaction volume was 50 μL. The reaction was terminated by the addition of 50 uL of 4 mM spermine in 10 mM Tris-HCl, pH 7.5, 1 mM EDTA. The quenched reaction was allowed to incubate for at least 15 minutes at room temperature, and then the precipitated RNA was captured by filtration through a glass fiber filter (GF/B, Millipore) in a 96 well format. The filter plate was washed five times with 200 μL of 2 mM spermine, 10 mM Tris-HCl, pH 8.0, 1 mM EDTA, and two times with ethanol. After drying thoroughly in air, 30 μL of Microscint-20 scintillation cocktail (Perkin Elmer) was added to each well, and the retained cpm were determined by scintillation counting. IC50 values were determined by nonlinear regression.
% Inhibition=100*[[I]/([I]+[IC50])] equation 1
V=kcat[S]/2(Km+[S])*(sqrt((IC50+I−E)̂2+(4*IC50*E))−(IC50+I−E)) equation 2

[15] = 5% FBS, absence of human plasma, read-out: Stable Replicon 1a H77 5% FBS EC50
[16] = strain 1a H77, 5% FBS + 40% human plasma, read-out: 1a H77 5% FBS + 40% Human Plasma EC50
[17] = strain 1a H77, 5% FBS, no human plasma, read-out: 1a H77 5% FBS EC50
[18] = strain 1a H77, 5% FBS, read-out: 1a H77 5% FBS EC50
[19] = strain 1b BB7, 5% FBS + 40% human plasma, read-out: 1b BB7 5% FBS + 40% Human Plasma EC50
[20] = strain 1b BB7, 5% FBS, no human plasma, read-out: 1b BB7 5% FBS EC50
[21] = strain 1b BB7, 5% FBS, read-out: 1b BB7 5% FBS EC50

T1 sequence (P27958 2421-2990): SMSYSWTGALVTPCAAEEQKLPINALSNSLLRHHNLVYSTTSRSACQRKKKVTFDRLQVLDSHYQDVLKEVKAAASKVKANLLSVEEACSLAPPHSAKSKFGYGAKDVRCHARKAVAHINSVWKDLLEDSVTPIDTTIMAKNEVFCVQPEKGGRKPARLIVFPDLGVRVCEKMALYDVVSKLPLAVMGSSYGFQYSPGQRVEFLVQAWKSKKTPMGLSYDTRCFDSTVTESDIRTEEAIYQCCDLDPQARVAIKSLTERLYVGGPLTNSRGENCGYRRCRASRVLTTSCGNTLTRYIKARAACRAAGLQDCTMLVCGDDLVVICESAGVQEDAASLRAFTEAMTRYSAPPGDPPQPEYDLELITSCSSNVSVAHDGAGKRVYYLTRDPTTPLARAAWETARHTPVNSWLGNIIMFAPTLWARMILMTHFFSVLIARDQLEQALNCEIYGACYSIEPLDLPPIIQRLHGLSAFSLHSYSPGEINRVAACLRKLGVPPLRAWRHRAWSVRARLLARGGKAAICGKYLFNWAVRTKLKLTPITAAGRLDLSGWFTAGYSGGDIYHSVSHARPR
T2 sequence (P27958 2421-2990 C2736Y): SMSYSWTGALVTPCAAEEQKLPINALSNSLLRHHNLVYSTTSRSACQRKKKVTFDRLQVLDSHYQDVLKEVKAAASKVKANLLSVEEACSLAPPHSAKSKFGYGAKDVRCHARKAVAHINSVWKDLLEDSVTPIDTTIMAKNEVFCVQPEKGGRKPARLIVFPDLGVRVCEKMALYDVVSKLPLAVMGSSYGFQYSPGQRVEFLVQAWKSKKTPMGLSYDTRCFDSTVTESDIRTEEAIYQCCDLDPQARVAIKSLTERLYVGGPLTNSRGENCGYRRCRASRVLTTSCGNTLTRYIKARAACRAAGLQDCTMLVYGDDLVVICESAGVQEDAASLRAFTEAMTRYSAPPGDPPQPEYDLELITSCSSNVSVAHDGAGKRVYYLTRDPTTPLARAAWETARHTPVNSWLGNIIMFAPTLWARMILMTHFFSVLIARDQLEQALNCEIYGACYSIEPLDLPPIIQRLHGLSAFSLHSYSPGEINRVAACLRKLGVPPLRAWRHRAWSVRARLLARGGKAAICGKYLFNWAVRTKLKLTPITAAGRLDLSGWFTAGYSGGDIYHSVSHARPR
T3 sequence (P26663 2420-2989): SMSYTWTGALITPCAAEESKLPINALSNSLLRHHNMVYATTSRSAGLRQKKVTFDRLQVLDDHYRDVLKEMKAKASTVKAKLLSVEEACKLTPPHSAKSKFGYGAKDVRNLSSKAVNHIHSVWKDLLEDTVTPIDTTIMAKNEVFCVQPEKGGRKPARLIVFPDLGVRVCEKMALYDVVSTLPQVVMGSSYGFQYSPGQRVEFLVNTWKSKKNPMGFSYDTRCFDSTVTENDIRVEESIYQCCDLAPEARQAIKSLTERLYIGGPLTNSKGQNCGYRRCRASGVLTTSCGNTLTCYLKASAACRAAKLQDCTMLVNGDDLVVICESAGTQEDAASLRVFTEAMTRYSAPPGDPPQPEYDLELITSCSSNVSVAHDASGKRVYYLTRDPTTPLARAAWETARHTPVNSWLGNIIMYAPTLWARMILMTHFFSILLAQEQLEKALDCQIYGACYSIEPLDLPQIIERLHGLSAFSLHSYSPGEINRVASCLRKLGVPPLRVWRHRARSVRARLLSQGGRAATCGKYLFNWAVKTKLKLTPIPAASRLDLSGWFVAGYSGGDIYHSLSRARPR

| Compound | IC50 [1] [µM] | IC50 [2] [µM] | C316Y/1a Fold Resistance [3] [fold] | IC50 [4] [µM] | EC50 [5, 15] [µM] | EC50 [5, 16] [µM] | EC50 [5, 17] [µM] | EC50 [5, 18] [µM] | EC50 [6] [µM] | Stable Replicon Fold Resistance C316Y/1a [6] [fold] | EC50 [7, 19] [µM] | EC50 [7, 20] [µM] | EC50 [7, 21] [µM] | EC50 [8] [µM] | EC50 [9] [µM] | EC50 [10] [µM] | EC50 [11] [µM] | also measured |
| --- | --- | --- | --- | --- | --- | --- | --- | --- | --- | --- | --- | --- | --- | --- | --- | --- | --- | --- |
| CS(=O)(=O)N(CCc1csc(N)n1)c1cc2oc(-c3ccc(F)cc3)c(-c3ncc[nH]3)c2cc1C1CC1 [Example 97, N-[2-(2-amino-1,3-thiazol-4-yl)ethyl]-N-[5-cyclopropyl-2-(4-fluorophenyl)-3-(1H-imidazol-2-yl)-1-benzofuran-6-yl]methanesulfonamide] | 0.006 | 0.549 | 92 | 0.039 | 0.108 | 0.721 | 0.108 | 0.108 | 3.77 | 34.9 | 0.644 | 0.062 | 0.062 | 0.595 | 0.895 | 0.036 | 0.528 |  |
| CC1NC(c2c(-c3ccc(F)cc3)oc3cc(N(CCO)S(C)(=O)=O)c(C4CC4)cc23)=NO1 (stereo not drawn) [Example 158, N-[5-cyclopropyl-2-(4-fluorophenyl)-3-(5-methyl-4,5-dihydro-1,2,4-oxadiazol-3-yl)-1-benzofuran-6-yl]-N-(2-hydroxyethyl)methanesulfonamide] | 0.0083 | 0.16 | 19 | 0.0363 | 0.0233 | 0.26 | 0.0233 | 0.0233 | 1.15 | 49.4 | 0.335 | 0.0235 | 0.0235 | 0.302 | 0.205 | 0.043 | 0.176 | EC50 [12]: 0.0195 µM; EC50 [13]: 0.304 µM; Transient Replicon Fold Resistance C316Y/1a [13]: 16 fold |
| C=C(c1ccccc1)c1ccc(-c2oc3cc(N(CCC(C)C)S(C)(=O)=O)c(C4CC4)cc3c2-c2ncc[nH]2)cc1 [Example 167, N-{5-cyclopropyl-3-(1H-imidazol-2-yl)-2-[4-(1-phenylvinyl)phenyl]-1-benzofuran-6-yl}-N-(3-methylbutyl)methanesulfonamide] | 0.0492 | 7.9 | 161 | 0.16 |  |  |  |  |  |  |  |  |  |  |  |  |  | IC50 [14]: 0.0616 µM; EC50 [12]: 0.0081 µM; EC50 [13]: 0.00611 µM; Transient Replicon Fold Resistance C316Y/1a [13]: 1 fold |
| CS(=O)(=O)N(CCCc1nsc(=O)[nH]1)c1cc2oc(-c3ccc(F)cc3)c(-c3ncc[nH]3)c2cc1C1CC1 [Example 178, N-[5-cyclopropyl-2-(4-fluorophenyl)-3-(1H-imidazol-2-yl)-1-benzofuran-6-yl]-N-[3-(5-oxo-4,5-dihydro-1,2,4-thiadiazol-3-yl)propyl]methanesulfonamide] | 0.013 | 0.828 | 64 | 0.065 | 0.0544 | 0.431 | 0.0544 | 0.0544 | 0.544 | 10.0 | 0.274 | 0.018 | 0.018 | 0.116 | 0.0913 | 0.0244 | 0.239 |  |
| CS(=O)(=O)N(CCCc1n[nH]c(=O)o1)c1cc2oc(-c3ccc(F)cc3)c(-c3ncc[nH]3)c2cc1C1CC1 [Example 179, N-[5-cyclopropyl-2-(4-fluorophenyl)-3-(1H-imidazol-2-yl)-1-benzofuran-6-yl]-N-[3-(5-oxo-4,5-dihydro-1,3,4-oxadiazol-2-yl)propyl]methanesulfonamide] | 0.004 | 0.045 | 11 | 0.025 | 0.0098 | 0.052 | 0.0098 | 0.0098 | 0.686 | 70.0 | 0.078 | 0.009 | 0.009 | 0.066 | 0.0849 | 0.0105 | 0.0778 |  |
| CS(=O)(=O)N(CCCCO)c1cc2oc(-c3ccc(F)cc3)c(-c3noc(=O)[nH]3)c2cc1C1CC1 [Example 185, N-[5-cyclopropyl-2-(4-fluorophenyl)-3-(5-oxo-4,5-dihydro-1,2,4-oxadiazol-3-yl)-1-benzofuran-6-yl]-N-(4-hydroxybutyl)methanesulfonamide] | 2.3 | 20 | 9 | 9 | 1 | 10 | 1 | 1 | 10 | 10.0 | 10 | 1 | 1 | 1 | 1 | 0.77 | > 1 |  |
| COc1ccc(-c2nn3ccc(-c4cc(C(=O)NC5(c6ccccc6)CC5)ccc4C)cc3c2-c2ncc[nH]2)cc1 [Example 191, 3-[3-(1H-imidazol-2-yl)-2-(4-methoxyphenyl)pyrazolo[1,5-a]pyridin-5-yl]-4-methyl-N-(1-phenylcyclopropyl)benzamide] | 0.012 |  |  |  |  |  |  |  |  |  |  |  |  |  |  |  | 0.0176 | IC50 [14]: 0.0084 µM |
